Laboratory results taken from publication PMC5943945, “Design, Synthesis and Cytotoxic Evaluation of Novel Chalcone Derivatives Bearing Triazolo[4,3-a]-quinoxaline Moieties as Potent Anticancer Agents with Dual EGFR Kinase and Tubulin Polymerization Inhibitory Effects” (Molecules : A Journal of Synthetic Chemistry and Natural …, 2017).
Where “and” joins values, the source holds several entries; their conditions need not be identical. Equal entries are not always repeated. Where two headings read alike, the source gives them in different places.

How the values were obtained:
EGFR TK = molecular target: T1, EGFR TK (Homo sapiens, UniProt P00533); experiment: EGFR inhibition assay (HTScan EGFR kinase assay kit); type: biochemical; details: averages of three independent experiments; compounds tested at concentration of 10 μM; 400 μM ATP
T1 construct: purchased Cell Signaling Technology
T1 sequence (P00533 25-1210): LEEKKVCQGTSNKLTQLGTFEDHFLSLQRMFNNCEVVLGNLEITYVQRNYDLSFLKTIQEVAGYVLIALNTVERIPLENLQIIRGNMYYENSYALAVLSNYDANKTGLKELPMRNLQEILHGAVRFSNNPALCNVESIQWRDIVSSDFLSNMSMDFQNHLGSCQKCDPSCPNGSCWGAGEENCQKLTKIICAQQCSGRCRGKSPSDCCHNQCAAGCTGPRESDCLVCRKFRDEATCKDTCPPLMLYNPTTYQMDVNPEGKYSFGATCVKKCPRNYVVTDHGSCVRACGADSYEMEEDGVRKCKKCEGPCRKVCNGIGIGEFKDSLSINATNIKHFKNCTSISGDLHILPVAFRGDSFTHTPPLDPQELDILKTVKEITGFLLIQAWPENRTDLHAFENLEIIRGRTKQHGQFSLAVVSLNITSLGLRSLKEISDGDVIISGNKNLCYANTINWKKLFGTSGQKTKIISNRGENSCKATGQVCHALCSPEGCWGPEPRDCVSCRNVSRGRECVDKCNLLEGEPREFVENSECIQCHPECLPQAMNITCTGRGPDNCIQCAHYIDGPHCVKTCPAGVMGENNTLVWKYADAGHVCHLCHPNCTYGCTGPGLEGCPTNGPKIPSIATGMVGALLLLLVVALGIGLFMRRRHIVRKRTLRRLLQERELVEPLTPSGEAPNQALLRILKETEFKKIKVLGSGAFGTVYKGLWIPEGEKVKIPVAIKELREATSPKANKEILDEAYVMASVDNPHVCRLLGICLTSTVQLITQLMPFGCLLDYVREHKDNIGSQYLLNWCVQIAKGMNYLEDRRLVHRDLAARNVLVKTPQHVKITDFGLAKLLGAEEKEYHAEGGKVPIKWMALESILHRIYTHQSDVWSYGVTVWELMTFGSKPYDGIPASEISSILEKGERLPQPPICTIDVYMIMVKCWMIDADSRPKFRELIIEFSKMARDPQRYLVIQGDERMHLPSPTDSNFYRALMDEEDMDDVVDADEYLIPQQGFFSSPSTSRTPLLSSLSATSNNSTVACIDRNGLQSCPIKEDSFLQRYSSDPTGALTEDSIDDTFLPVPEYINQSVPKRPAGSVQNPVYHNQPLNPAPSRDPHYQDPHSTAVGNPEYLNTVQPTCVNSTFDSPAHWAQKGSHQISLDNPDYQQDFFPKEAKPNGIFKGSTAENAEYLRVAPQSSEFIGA
Protocol: As the designed compounds had good antiproliferative activity, in vitro EGFR inhibition capability was firstly evaluated for the target cytotoxic derivatives to see whether their cytotoxicity was mediated by kinase inhibition. […]. EGFR kinase activity was assessed using HTScan EGFR kinase assay kits (Cell Signaling Technology, Danvers, MA, USA). The experiments were performed according to the manufacturer’s instructions. […] Phosphorylated substrate was captured with strapavidin-coated 96-well plates. The level of phosphorylation was monitored by anti-phosphotyrosine and europium-labeled secondary antibodies (DELFIA, Perkin-Elmer, Akron, OH, USA). The enhancement solution was added at the end of the assay and enzyme activity was measured in a Victor II 1420 microplate reader (Wallac, Boston, MA, USA) at […].

tubulin = molecular target: T2, tubulin (Homo sapiens, UniProt P07437+P68363); experiment: Tubulin polymerization / ELISA for Tubulin Beta (TUBb) in HCT-116 cells; type: cell-based
T2 construct: The HCT-116 cell line was obtained from the American Type Culture Collection; endogenous in cells; host or cells: HCT-116
T2 sequence (P07437 whole entry): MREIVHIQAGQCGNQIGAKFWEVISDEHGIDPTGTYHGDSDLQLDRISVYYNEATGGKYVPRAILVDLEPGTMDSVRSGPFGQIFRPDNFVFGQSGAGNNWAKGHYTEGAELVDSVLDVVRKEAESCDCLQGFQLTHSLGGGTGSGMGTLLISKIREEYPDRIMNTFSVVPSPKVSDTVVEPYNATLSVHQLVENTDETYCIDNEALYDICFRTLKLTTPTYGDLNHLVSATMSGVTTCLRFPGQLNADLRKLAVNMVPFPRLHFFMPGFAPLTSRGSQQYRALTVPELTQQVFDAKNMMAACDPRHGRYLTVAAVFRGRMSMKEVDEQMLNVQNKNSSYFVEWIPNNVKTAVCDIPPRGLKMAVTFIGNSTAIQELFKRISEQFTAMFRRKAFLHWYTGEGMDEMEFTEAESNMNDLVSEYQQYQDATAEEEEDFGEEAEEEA
T2 sequence (P68363 whole entry): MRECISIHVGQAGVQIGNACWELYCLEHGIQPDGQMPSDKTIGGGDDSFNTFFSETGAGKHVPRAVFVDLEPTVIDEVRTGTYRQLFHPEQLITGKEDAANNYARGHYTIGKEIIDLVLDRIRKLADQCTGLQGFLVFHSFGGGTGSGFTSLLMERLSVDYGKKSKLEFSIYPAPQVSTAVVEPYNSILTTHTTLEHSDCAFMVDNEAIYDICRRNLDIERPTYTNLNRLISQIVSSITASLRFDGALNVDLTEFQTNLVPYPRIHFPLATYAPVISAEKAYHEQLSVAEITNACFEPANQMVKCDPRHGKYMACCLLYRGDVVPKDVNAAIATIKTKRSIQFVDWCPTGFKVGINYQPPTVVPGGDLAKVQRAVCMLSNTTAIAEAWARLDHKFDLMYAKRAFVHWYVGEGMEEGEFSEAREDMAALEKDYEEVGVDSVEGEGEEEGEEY
Protocol: Tubulin is the principal component of the eukaryotic cytoskeleton and participates in several crucial cellular processes, including cell replication.
Plate cells (cells density 1.2–1.8 × 10^3 cells/well) in a volume of […] complete growth medium and […] of the tested compound per well in a 96-well plate for 18–24 h before the enzyme assay for tubulin. […] Standards or samples are then added to the appropriate microtiter plate wells with a biotin-conjugated antibody specific to TUBb. Next, avidin conjugated to horseradish peroxidase (HRP) is added to each microplate well and incubated. […] The enzyme-substrate reaction is terminated by the addition of sulphuric acid solution and the color change is measured spectrophotometrically at a wavelength of 450 ± 10 nm. The concentration of TUBb in the samples is then determined by comparing the O.D. of the samples to the standard curve.

HepG-2 = experiment: MTT cytotoxicity assay, HepG-2; type: cell-based; details: Homo sapiens, HepG2, 72 h exposure, mean ± SD
Protocol: (§1) The newly synthesized chalcone compounds 7a–k were evaluated for their in vitro anticancer activity against three cancer cell lines—HCT-116, MCF-7 and HepG-2—according to the MTT assay method using doxorubicin as reference drug.
(§2) The in vitro anticancer activities of the selected chalcone compounds against three cancer cell lines: human colon carcinoma (HCT-116), human hepatocellular carcinoma (HEPG-2), and human breast adenocarcinoma (MCF-7) were evaluated as described with some modifications. Target tumor cells were grown to log phase in DMEM medium supplemented with 10% fetal bovine serum. After diluting to 1 × 10^5 cells mL^−1 with the medium, 100 μL of the obtained cell suspension was added to each well of 96-well culture plates. Subsequently, incubation was performed at 37 °C in 5% CO2 atmosphere for 48 h before the cytotoxicity assessment. Tested samples at preset concentrations were added to 6 wells with doxorubicin being employed as a positive reference. After 72 h exposure period, 25 μL of PBS containing 2.5 mg mL^−1 of MTT was added to each well. After 4 h, the medium was replaced by 150 μL DMSO to dissolve the purple formazan crystals produced. The absorbance at 570 nm of each well was measured with an ELISA plate reader. The data represented the mean of three independent experiments in triplicate and were expressed as means ± SD.

[1] = test system: HCT-116, MCF-7 and HepG-2; experiment: MTT cytotoxicity, statements across the three cell lines; type: cell-based, human; details: for IC50: Homo sapiens, range over HCT-116, MCF-7, HepG-2, read-out: IC50 against the three cell lines (range given); for anticancer activity in words: three cell lines, MTT
Protocol: as §1, §2

HCT-116 = experiment: MTT cytotoxicity assay, HCT-116; type: cell-based; details: Homo sapiens, 72 h exposure, mean ± SD
Protocol: as §1, §2

MCF-7 = experiment: MTT cytotoxicity assay, MCF-7; type: cell-based; details: Homo sapiens, MCF7, 72 h exposure, mean ± SD
Protocol: as §1, §2

[2] = averages of two independent experiments, read-out: Tubulin Polymerization (IC50 µM)

Row | SMILES | melting point [°C] | IC50 (EGFR TK) | IC50 (tubulin; [2]) [µM] | IC50 (HepG-2) [µM] | IC50 [1] [µM] | IC50 (HCT-116) [µM] | IC50 (MCF-7) [µM] | anticancer activity in words [1] | IC50 (tubulin; abstract text, read-out: antitubulin polymerization activity (abstract)) [µM]
1 | CCc1nnc2c(Nc3ccc(C(=O)/C=C/c4ccccc4OC)cc3)nc3ccccc3n12 [Compound 7b, (E)-1-(4-((1-Ethyl-[1,2,4]triazolo[4,3-a]quinoxalin-4-yl)amino)phenyl)-3-(2-methoxyphenyl)prop-2-en-1-one] | 264 to 266 | 0.127 to 0.136 µM and 0.127 µM | 18.1 ± 0.3 | 30.72 ± 0.12 | 1.65 to 34.3 | 25.6 ± 0.03 | 24.04 ± 0.12 |  | 
2 | CCc1nnc2c(Nc3ccc(C(=O)/C=C/c4ccc(O)cc4)cc3)nc3ccccc3n12 [Compound 7f, (E)-1-(4-((1-Ethyl-[1,2,4]triazolo[4,3-a]quinoxalin-4-yl)amino)phenyl)-3-(4-hydroxyphenyl)prop-2-en-1-one] | 253 to 255 | > 50 µM | > 100 | > 100 |  | 18.1 ± 0.15 | > 100 |  | 
3 | COc1cccc2c1C(=O)c1c(O)c3c(c(O)c1C2=O)C[C@@](O)(C(=O)CO)C[C@@H]3O[C@H]1C[C@H](N)[C@H](O)[C@H](C)O1 [Doxorubicin, reference compound] |  |  |  | 0.22 ± 0.01 |  | 1.55 ± 0.03 | 0.27 ± 0.08 |  | 
4 | CCc1nnc2c(Nc3ccc(C(=O)/C=C/c4ccc([N+](=O)[O-])cc4)cc3)nc3ccccc3n12 [Compound 7h, (E)-1-(4-((1-Ethyl-[1,2,4]triazolo[4,3-a]quinoxalin-4-yl)amino)phenyl)-3-(4-nitrophenyl)prop-2-en-1-one] | 260 to 262 | > 100 µM | > 100 | > 100 |  | > 100 | > 100 |  | 
5 | CCc1nnc2c(Cl)nc3ccccc3n12 [Compound 5, 4-Chloro-1-ethyl-[1,2,4]triazolo[4,3-a]quinoxaline] | 158 to 160 |  |  | 322 ± 0.15 |  | 236 ± 0.1 | 246 ± 0.13 |  | 
6 | CCc1nnc2c(Nc3ccc(C(=O)/C=C/c4ccc(C)cc4)cc3)nc3ccccc3n12 [Compound 7d, (E)-1-(4-((1-Ethyl-[1,2,4]triazolo[4,3-a]quinoxalin-4-yl)amino)phenyl)-3-(p-tolyl)prop-2-en-1-one] | 247 to 249 | > 100 µM |  | > 100 |  | > 100 | 93.4 ± 0.14 | low activity | 
7 | CCc1nnc2c(Nc3ccc(C(=O)/C=C/c4ccc(OC)cc4)cc3)nc3ccccc3n12 [Compound 7e, (E)-1-(4-((1-Ethyl-[1,2,4]triazolo[4,3-a]quinoxalin-4-yl)amino)phenyl)-3-(4-methoxyphenyl)prop-2-en-1-one] |  | 0.083 ± 0.04 µM | 14.7 ± 0.11 | 34.28 ± 0.14 | 1.65 to 34.3 | 9.57 ± 0.11 | 8.23 ± 0.25 |  | 
8 | CCc1nnc2c(Nc3ccc(C(=O)/C=C/c4ccc(Cl)cc4)cc3)nc3ccccc3n12 [Compound 7i, (E)-3-(4-Chlorophenyl)-1-(4-((1-ethyl-[1,2,4]triazolo[4,3-a]quinoxalin-4-yl)amino)phenyl)prop-2-en-1-one] | 255 to 257 | > 100 µM | > 100 | > 100 |  | > 100 | > 100 |  | 
9 | CCc1nnc2c(Nc3ccc(C(=O)/C=C/c4c(Cl)cccc4Cl)cc3)nc3ccccc3n12 [Compound 7k, (E)-3-(2,6-Dichlorophenyl)-1-(4-((1-ethyl-[1,2,4]triazolo[4,3-a]quinoxalin-4-yl)amino)phenyl)prop-2-en-1-one] | 250 to 252 | > 100 µM | > 100 | > 100 |  | 19.7 ± 0.25 | > 100 |  | 
10 | CCc1nnc2c(Nc3ccc(C(=O)/C=C/c4ccccc4O)cc3)nc3ccccc3n12 [Compound 7c, (E)-1-(4-((1-Ethyl-[1,2,4]triazolo[4,3-a]quinoxalin-4-yl)amino)phenyl)-3-(2-hydroxyphenyl)prop-2-en-1-one] | 261 to 263 | 0.127 to 0.136 µM and 0.136 µM | 43.4 ± 0.01 | 17.32 ± 0.12 |  | 19.8 ± 0.23 | 22.17 ± 0.11 |  | 
11 | CCc1nnc2c(Nc3ccc(C(C)=O)cc3)nc3ccccc3n12 [Compound 6, 1-(4-((1-ethyl-[1,2,4]triazolo[4,3-a]quinoxalin-4-yl)amino)phenyl)ethan-1-one] | 235 to 237 |  |  | 446 ± 0.2 |  | 411 ± 0.21 | 410 ± 0.25 |  | 
12 | CCc1nnc2c(Nc3ccc(C(=O)/C=C/c4ccc(Cl)cc4Cl)cc3)nc3ccccc3n12 [Compound 7j, (E)-3-(2,4-Dichlorophenyl)-1-(4-((1-ethyl-[1,2,4]triazolo[4,3-a]quinoxalin-4-yl)amino)phenyl)prop-2-en-1-one] | 250 to 252 | > 100 µM | > 100 | > 100 |  | > 100 | > 100 |  | 
13 | CCc1nnc2c(Nc3ccc(C(=O)/C=C/c4ccccc4)cc3)nc3ccccc3n12 [Compound 7a, (E)-1-(4-((1-Ethyl-[1,2,4]triazolo[4,3-a]quinoxalin-4-yl)amino)phenyl)-3-phenylprop-2-en-1-one] | 260 to 262 | 0.661 ± 0.00011 µM | 77.1 ± 0.21 | 105.2 ± 0.5 |  | 57.49 ± 0.29 | 58.92 ± 0.32 | did not show significant activity | 
14 | CCc1nnc2c(Nc3ccc(C(=O)/C=C/c4cc(OC)c(OC)c(OC)c4)cc3)nc3ccccc3n12 [Compound 7g, (E)-1-(4-((1-Ethyl-[1,2,4]triazolo[4,3-a]quinoxalin-4-yl)amino)phenyl)-3-(3,4,5-trimethoxyphenyl)prop-2-en-1-one] |  | 0.039 µM | 8.84 ± 0.02 | 8.58 ± 0.06 | 1.65 to 34.3 | 3.61 ± 0.18 | 1.65 ± 0.13 |  | 8.4
